Test results as given in PMC5773580, “A synthetic combinatorial approach to disabling deviant Hedgehog signaling” (Scientific Reports, 2018).
One block for each molecule: values may come before it.

Experiments:
[1] = test system: SMO-M2 in NIH3T3 (GLI-BS reporter); assay: GLI-BS reporter assay, NIH3T3 cells with SMO-M2 DNA; type: cell-based; conditions: Mus musculus
Protocol: (§1) The HH-responsive firefly luciferase reporter (GLI-BS) and a control Renilla luciferase reporter (SV40-RL) were transfected into indicated cell lines using Effectene (Qiagen) either alone or with indicated DNAs. 24 hrs after transfection, cells were switched to low serum media (3% calf serum), and grown for another 48 hrs. in 5% CO2 in the presence/absence of compounds. 3T3-ShhFL cell line that stably expressing SHH and the two reporters were cultured in a similar fashion. FL and RL activities in lysate generated using Passive Lysis Buffer (Promega) were then assessed using the Dual-Luciferase kit (Promega) and a 96-well plate reading luminometer (BMG). The ratio of FL/RL was calculated and the averaged ratios from three replicates were reported.

[2] = test system: SHH-induced GLI activity (GLI-BS reporter) in NIH3T3; assay: HH pathway reporter (GLI-BS reporter) assay, +Shh in NIH3T3; type: cell-based; conditions: Mus musculus; +Shh in NIH3T3, 48 hrs with compound
Protocol: as §1

[3] = test system: SMO-L412F in NIH3T3 (GLI-BS reporter); assay: GLI-BS reporter assay, NIH3T3 cells with SMO-L412F DNA; type: cell-based; conditions: Mus musculus
Protocol: as §1

[4] = test system: HDAC activity (acetylated tubulin) in NIH-3T3 cells; assay: Acetylation assay, Western blot of acetylated tubulin; type: cell-based; conditions: 48hrs
Protocol: (§2) For analyzing acetylation status of histone 3 and tubulin, NIH3T3 cells were grown to confluence in 6-well plates. After 48hrs of treatment with indicated chemicals, cells were lysed in RIPA buffer or 1% NP40/phosphate buffered saline/protease inhibitors (SIGMA, #S8820), the lysate cleared using a microcentrifuge, then 6 × sample loading buffer (Bioland Scientific) added to the supernatant. Proteins were separated on SDS-PAGE (BioRad Criterion TGX Precast Gels). Antibodies used for analyzing the blots were: acetylated tubulin (SIGMA, #T6793), tubulin, acetyl-histone H3 (Lys23), and histone H3 (Cell Signaling Technology, #2125 S, #8848 and #9717, respectively). Chemiluminescence was detected using a Li-COR Odyssey Imaging System.

[5] = test system: RMS13 cells (GLI1 amp), GLI-BS reporter; assay: GLI-BS reporter assay in RMS13 cells (GLI1 amplification); type: cell-based
Protocol: as §1

[6] = test system: GLI-BS reporter in Ptch1-/- MEFs; assay: GLI-BS reporter assay in Ptch1-/- MEFs; type: cell-based
Protocol: as §1

[7] = test system: nuclear HDAC activity (Ac-H3) in NIH-3T3 cells; assay: Acetylation assay, Western blotting for acetylated histone 3 (Ac-H3); type: cell-based; conditions: 48hrs, Western blot
Protocol: as §2

Caco-2 cells = assay: Caco-2 transwell cell permeability assay read out with 3T3-ShhFL reporter cells; type: in vitro ADME; conditions: 10μM, 6hrs, "B" CM tested on 3T3-ShhFL cells
Protocol: Caco-2 cell permeability assay was previously described. Briefly, Caco-2 cells were grown to confluence in 12-well transwell plates. Culture medium was replaced with 10μM of compounds in DMEM/ 3% calf serum and incubated for 6hrs. Diluted media were added to confluent 3T3-ShhFL cells for 48hrs and measure the Hh pathway activity by reporter assay.

[8] = test system: GLI1 binding to DNA in RMS13 cells; assay: GLI DNA binding assay (biotinylated oligo pulldown); type: cell-based; conditions: lysate of RMS13 cells treated 48 hrs
Protocol: A detailed protocol for DNA binding assay was previously described. Briefly, cells treated for 48 hrs with compounds were lysed in 1% NP40/phosphate buffered saline/protease inhibitors and cleared using a microcentrifuge. The lysate was then incubated with 0.5 µM of double-strand biotinylated oligonucleotides and 40 µl streptavidin-agarose bead suspension (Thermo Scientific, 20349) for 2 hrs. The streptavidin agarose beads are washed (3X) with 1% NP40/phosphate buffered saline/protease inhibitors and eluted with 2X Laemmli sample buffer. The supernatants are separated on SDS-PAGE and analyzed using western blotting. Antibodies were purchased from the following vendors: GLI1 (Cell Signaling Technology, #2534) and actin (SIGMA, #A5441).

Structure (SMILES): O=C(CCCCCCC(=O)Nc1ccc(Cl)c(C(=O)Nc2cccc(NC(=O)c3cc(Cl)ccc3Cl)c2)c1)NO [IHR (meta)-SAHA]
IC50 [1]: 850 nM | IC50 [2]: 2300 nM | IC50 [3]: 920 nM | HDAC inhibitory activity, acetylated tubulin accumulation (ratio to total tubulin), compared with SAHA [4]: increase in anti-HDAC activity | IC50 [5]: 1200 nM | IC50 [6]: 2500 nM | HDAC inhibitory activity, accumulation of acetylated histone 3 (ratio Ac-H3 to total H3) [7]: retain HDAC inhibitory activity

Structure (SMILES): CC(C)(C)OC(=O)Nc1ccc(Cl)c(C(=O)Nc2ccc(NC(=O)c3cc(Cl)ccc3Cl)cc2)c1 [IHR-NBoc, tert-butyl (4-chloro-3-((4-(2,5-dichlorobenzamido)phenyl)carbamoyl)phenyl)carbamate]
IC50 [2]: 1.9 nM

Structure (SMILES): O=C(CCCCCCC(=O)Nc1ccccc1)NO [SAHA, suberanilohydroxamic acid]
GLI1 binding to immobilized oligos with consensus GLI binding sequence [8]: loss of GLI1 binding

The next lines start with results.

IC50 [6]: 25 nM
Structure (SMILES): O=C(Nc1ccc(NC(=O)c2cc(Cl)ccc2Cl)cc1)c1cc(Cl)ccc1Cl [IHR-1, reference compound]
IC50 [2]: 7 nM

ability to transverse a cell monolayer (cell permeability) (Caco-2 cells): improved
Structure (SMILES): CC(C)(C)OC(=O)NCCCCCCC(=O)Nc1ccc(Cl)c(C(=O)Nc2ccc(NC(=O)c3cc(Cl)ccc3Cl)cc2)c1 [IHR-C7]
IC50 [2]: 4 nM
